Numbers after ± are expanded uncertainties.
Key:
[1] = 99 kPa, Liquid; for viscosity: Capillary tube (Ostwald / Ubbelohde) method; for speed of sound: Frequency=3 MHz, Sing-around technique in a fixed-path interferometer; for mass density: Vibrating tube method
[2] = refractive index (Na D-line) (dimensionless); conditions: 99 kPa, Liquid, Standard Abbe refractometry
[3] = xn = mol fraction of the nth substance listed; conditions: 99 kPa, Liquid, x2 = 0; for viscosity: Capillary tube (Ostwald / Ubbelohde) method; for speed of sound: Frequency=3 MHz, Sing-around technique in a fixed-path interferometer; for mass density: Vibrating tube method
[4] = refractive index (Na D-line) (dimensionless); xn = mol fraction of the nth substance listed; conditions: 99 kPa, Liquid, Standard Abbe refractometry, x2 = 0

CC(=O)N(C)C [N,N-dimethylethanamide]
Conditions	mass density, [1] [kg/m3]	refractive index, [2]	speed of sound, [1] [m/s]	viscosity, [1] [mPa·s]
283.15 K	950.131 ± 0.21	1.44273 ± 0.00036	1516.8 ± 1.3	1.168 ± 0.014
298.15 K	936.289 ± 0.21	1.43579 ± 0.00036	1453.7 ± 1.3	0.9299 ± 0.011
313.15 K	922.429 ± 0.21	1.42901 ± 0.00036	1393.3 ± 1.3	0.7644 ± 0.0091

CCO [ethanol]
Conditions	mass density, [1] [kg/m3]	refractive index, [2]	speed of sound, [1] [m/s]	viscosity, [1] [mPa·s]
283.15 K	797.878 ± 0.19	1.36529 ± 0.00035	1194.5 ± 1.2	1.444 ± 0.017
298.15 K	785.054 ± 0.19	1.35913 ± 0.00035	1143.2 ± 1.2	1.079 ± 0.012
313.15 K	772.5 ± 0.19	1.35275 ± 0.00035	1092.4 ± 1.1	0.8235 ± 0.0096

CCO [ethanol] + CC(=O)N(C)C
Conditions	mass density, [3] [kg/m3]	refractive index, [4]	speed of sound, [3] [m/s]	viscosity, [3] [mPa·s]
283.15 K	797.878 ± 0.19	1.36529 ± 0.00035	1194.5 ± 1.2	1.444 ± 0.017
298.15 K	785.054 ± 0.19	1.35913 ± 0.00035	1143.2 ± 1.2	1.079 ± 0.012
313.15 K	772.5 ± 0.19	1.35275 ± 0.00035	1092.4 ± 1.1	0.8235 ± 0.0096

CO [methanol]
Conditions	mass density, [1] [kg/m3]	refractive index, [2]	speed of sound, [1] [m/s]	viscosity, [1] [mPa·s]
283.15 K	800.707 ± 0.19	1.33282 ± 0.00035	1152.7 ± 1.2	0.677 ± 0.0079
298.15 K	786.611 ± 0.19	1.32636 ± 0.00035	1104.2 ± 1.1	0.5449 ± 0.0064
313.15 K	772.31 ± 0.19	1.32013 ± 0.00035	1054.5 ± 1.1	0.4441 ± 0.0053

CO [methanol] + CC(=O)N(C)C
Conditions	mass density, [3] [kg/m3]	refractive index, [4]	speed of sound, [3] [m/s]	viscosity, [3] [mPa·s]
283.15 K	800.707 ± 0.19	1.33282 ± 0.00035	1152.7 ± 1.2	0.677 ± 0.0079
298.15 K	786.611 ± 0.19	1.32636 ± 0.00035	1104.2 ± 1.1	0.5449 ± 0.0064
313.15 K	772.31 ± 0.19	1.32013 ± 0.00035	1054.5 ± 1.1	0.4441 ± 0.0053

From the NIST ThermoML archive (doi:10.1021/acs.jced.5b01000)
